# Test system: yeast atx1Δ
# Experiment: Respiratory growth rescue of atx1Δ yeast
# Format: cell-based, Saccharomyces cerevisiae
# Conditions: non-fermentable media, 37° C.
# Method: Yeast Strains and Culture Conditions. The authenticity of yeast strains was confirmed by PCR as well as by replica plating on dropout plates. Yeast cells were cultured in standard YP growth media including YPD (1% yeast extract, 2% peptone and 2% glucose), YPGal (2% galactose), YPGE (3% glycerol+1% ethanol), or synthetic media (SC glucose). For qualitative growth measurement, 10-fold serial dilutions of overnight cultures were spotted on YPD or YPGE plates and incubated at 30° C. and 37° C. for the indicated period. Growth in liquid media was measured spectrophotometrically at 600 nm.
# ES Rescues Many Different Yeast Mutants with Impaired Copper Metabolism. To test the specificity of ES mediated rescue, a number of yeast mutants of genes required for maintaining cellular and mitochondrial copper homeostasis were shortlisted. Genes were prioritized based on their evolutionary conservation, presence of pathogenic mutations in humans, and/or the existence of a related mouse phenotype (Table 3, shown below). […] Most of the yeast mutants were rescued with ES supplementation, albeit to different degrees, reflecting their distinct roles in cellular and mitochondrial copper homeostasis. […]
smiles,measurement,value
"CN(NC(=O)CC(=O)NN(C)C(=S)c1ccccc1)C(=S)c1ccccc1 [ES, elesclomol]",rescue of respiratory growth,rescue

# Reference: patent US20240285555A1, “COMPOSITIONS FOR THE TREATMENT OF COPPER DEFICIENCY AND METHODS OF USE” (priority 2018, published 2024)
